Data from US11413241B2, “Method for preparing a composition with a low dissolved oxygen content, comprising acetaminophen, and optionally one or more NSAIDs, and a composition obtained thereof” (Hyloris Developments SA, priority 2017, dated 2022).

Key:
[1] = Dissolution of sodium ibuprofen 2H2O in the acetaminophen-ibuprofen formulation at varying pH; type: physicochemical
[2] = Dissolution/precipitation of sodium ibuprofen 2H2O alone in water at decreasing pH; type: physicochemical
[3] = from literature; cited from earlier work
[4] = Amount of acetaminophen at various points in time and different pH; type: physicochemical; details: pH range 6.3-7.3, various points in time
From the text: The amount of acetaminophen was studied at varies points in time and for different pH's.

In the case of `CC(C)Cc1ccc(C(C)C(=O)O)cc1` (stereo not shown) [sodium ibuprofen 2H2O], the Dissolved ([1]; in the formulation 3 mg/ml Acetaminophen 10 mg/ml Ibuprofen, pH 6.2) is reported as “Yes”, the Dissolved ([1]; in the formulation 3 mg/ml Acetaminophen 10 mg/ml Ibuprofen, pH 6.3) is reported as “Yes” and the Dissolved ([1]; in the formulation 3 mg/ml Acetaminophen 10 mg/ml Ibuprofen, pH 6.4) is reported as “Yes”. The Dissolved ([1]; in the formulation 3 mg/ml Acetaminophen 10 mg/ml Ibuprofen, pH 6.6) was “Yes”, the Dissolved ([1]; in the formulation 3 mg/ml Acetaminophen 10 mg/ml Ibuprofen, pH 7) was “Yes” and the Dissolved ([1]; in the formulation Acetaminophen - Ibuprofen, 1 month, pH 6.2) was “No”. The Dissolved ([1]; in the formulation Acetaminophen - Ibuprofen, 1 month, pH 6.3) was “Yes”, the Dissolved ([1]; in the formulation Acetaminophen - Ibuprofen, 1 month, pH 6.4) was “Yes” and the Dissolved ([1]; in the formulation Acetaminophen - Ibuprofen, 1 month, pH 6.6) was “Yes”. The Dissolved ([1]; in the formulation Acetaminophen - Ibuprofen, 1 month, pH 7) was “Yes”, the Dissolved ([1]; in the formulation Acetaminophen - Ibuprofen, 6 months, 25° C., pH 6.3) was “Yes” and the Dissolved ([1]; in the formulation Acetaminophen - Ibuprofen, 6 months, 25° C., pH 6.4) was “Yes”. The Dissolved ([1]; in the formulation Acetaminophen - Ibuprofen, 6 months, 25° C., pH 6.6) was “Yes”, the Dissolved ([1]; in the formulation Acetaminophen - Ibuprofen, 6 months, 25° C., pH 7) was “Yes” and the pH of composition ([2]; 3.85 mg/ml in water, before pH decrease) was 8.80. For the same compound, the Dissolved ([2]; alone in water, pH 3) was “No”, the Dissolved ([2]; alone in water, pH 4) was “No” and the Dissolved ([2]; alone in water, pH 5) was “No”. The Dissolved ([2]; alone in water, pH 5.5) was “No”, the Dissolved ([2]; alone in water, pH 5.8) was “Yes” and the Dissolved ([2]; alone in water, pH 6) was “Yes”. For the same compound, the Dissolved ([2]; alone in water, pH 6.2) was “Yes”, the Dissolved ([2]; alone in water, pH 6.4) was “Yes” and the Dissolved ([2]; alone in water, pH 6.6) was “Yes”. The Dissolved ([2]; alone in water, pH 6.8) was “Yes”, the Dissolved ([2]; alone in water, pH 7) was “Yes” and the Dissolved ([2]; alone in water, pH 7.5) was “Yes”. The Dissolved ([2]; in water after 1 month storage at 25° C., pH 5.8) was “No”, the Dissolved ([2]; in water after 1 month storage at 25° C., pH 6) was “No” and the Dissolved ([2]; in water after 1 month storage at 25° C., pH 6.2) was “Yes”. The Dissolved ([2]; in water after 1 month storage at 25° C., pH 6.4) was “Yes”, the Dissolved ([2]; in water after 1 month storage at 25° C., pH 6.6) was “Yes” and the Dissolved ([2]; in water after 1 month storage at 25° C., pH 6.8) was “Yes”. For the same compound, the Dissolved ([2]; in water after 1 month storage at 25° C., pH 7) was “Yes” and the Dissolved ([2]; in water after 1 month storage at 25° C., pH 7.5) was “Yes”.

In the case of `CC(=O)Nc1ccc(O)cc1` [acetaminophen, N-(4-hydroxyphenyl)acetamide], the “pH at which rate of degradation is minimal” value [3] is listed as ~6 and the degradation of acetaminophen [4] is listed as “minimal degradation”.

With `CC(C)Cc1ccc(C(C)C(=O)O)cc1` (stereo not shown) [ibuprofen] the “pH at which precipitation is observed” value ([2]; 3.85 mg/ml sodium ibuprofen 2H2O in water, pH gradually decreased) was 5.75, the precipitation ([2]; pH 6, stored 1 month at 25° C.) was “showed precipitation” and the precipitation ([2]; pH 6.2, stored 1 month at 25° C.) was “precipitation was absent”.
